The source of these data is patent US8674107B2, “Crystal of anti-bacterial compound” (priority 2010, dated 2014).

Common to all, as to format: physicochemical
Series [1] in a line: Evaluation of solubility in test solutions (HPLC). The note with it: for Concentration: 37° C., total of 30 minutes. As for the experimental part: The monohydrochloride dihydrate prepared in Example 1 and the free form (anhydrous form) were used in the following evaluation of solubility: an appropriate amount of each sample was added to 2 mL each of the test solutions (water, the JP 1st fluid for the disintegration test (JP1), and the JP 2nd fluid for the disintegration test (JP2)), fasted state simulated intestinal fluid (FaSSIF), and fed state simulated intestinal fluid (FeSSIF), and incubated in a thermobath of 37° C. Each solution was shaken in a vortex mixer for 30 seconds every 5 minutes (for a total of 30 minutes). Then, the supernatant was filtered through a membrane filter (pore size: 0.45 μm). After appropriate dilution with an eluent, the diluted solution was subjected to HPLC analysis to calculate concentration.
Measurement conditions for HPLC;
Column: Waters Symmetry C18 3.5 um, 4.6×100 mm
Column temperature: 40° C.
Mobile phase: 50 mM KH2PO4-K2HPO4 (pH 7.0)/MeCN=8:2

The nature of series [2]: Evaluation of chemical stability (storage under dry-heat or wet-heat, HPLC). The note with it: 2 weeks. The protocol: Approximately 2 mg each of various samples prepared in Example 1 was weighed into an aluminum pan for thermal analysis and stored under dry-heat (60° C., 0% RH) or wet-heat (40° C., 75% RH) conditions. One and two weeks later, each sample was collected, and the change in weight was determined. Then, the whole amount was dissolved in 20 mL of an eluent and subjected to HPLC analysis.

Series [3] can be described thus: Evaluation of moisture absorption and desorption properties (microbalance). The note with it: 25° C.; for moisture absorption and desorption patterns: 10-90% RH; for change in weight (moisture absorption and desorption properties): measurement range 10-90% RH. The protocol:
Of the various samples prepared in Example 1, the monohydrochloride dihydrate, monohydrochloride monohydrate, and sulfate were separately placed in quartz holders and examined for their moisture absorption and desorption behaviors using a microbalance under the following measurement conditions:
Measurement conditions for moisture absorption and desorption behavior (sample volume: approximately 10 mg, measurement range: 10-90% RH, measurement temperature: 25° C., variable: within 0.03%, varying length of time: 10 minutes, apparatus: atmospheric pressure-type automatic water vapor sorption instrument manufactured by VTI Corp.)

The mark [4] stands for this setting: listed as monohydrochloride dihydrate of compound A, monohydrochloride dihydrate.

The structures appear in SMILES notation. Structures can show the parent of a compound that is named as a salt.

A word on the solubility: it is how much of the substance goes into solution per volume. In series [1] (37 °C, thermodynamic from solid, in each of water, JP 1st fluid, JP 2nd fluid, FaSSIF and FeSSIF), `Cc1c(N2C[C@]3(N)CCC[C@]3(F)C2)c(F)cc2c(=O)c(C(=O)O)cn([C@@H]3C[C@@H]3F)c12` [Monohydrochloride dihydrate, 7-[(1R,5S)-1-amino-5-fluoro-3-azabicyclo[3.3.0]octan-3-yl]-6-fluoro-1-[(1R,2S)-2-fluorocyclopropan-1-yl]-1,4-dihydro-8-methyl-4-oxoquinoline-3-carboxylic acid monohydrochloride dihydrate] yielded a solubility at 30 min not below 2000 µg/mL. For the same molecule, the Concentration in series [1] (Fasted state simulated intestinal fluid (FaSSIF), monohydrochloride dihydrate) is more than 2000 µg/mL; in series [1] (Fed state simulated intestinal fluid (FeSSIF)), more than 2000 µg/mL; in series [1] (JP 1st fluid for dissolution test) it was more than 2000 µg/mL; in series [1] (JP 2nd fluid for dissolution test, monohydrochloride dihydrate), more than 2000 µg/mL; in series [1] (Water, monohydrochloride dihydrate), more than 2000 µg/mL. The “Increase in related substances (%)” value was found to be 0.02% in series [2] (60° C./0% RH, listed as monohydrochloride dihydrate of compound A, monohydrochloride dihydrate) and 0.02% in series [2] (60° C./0% RH, monohydrochloride dihydrate). Further, the “moisture absorption and desorption patterns” value in series [3] (setting [4]) and in series [3] (monohydrochloride dihydrate) was “well consistent” throughout. In series [3] (setting [4]), the “change in weight (moisture absorption and desorption properties)” value is not above 2%.

As to `Cc1c(N2C[C@]3(N)CCC[C@]3(F)C2)c(F)cc2c(=O)c(C(=O)O)cn([C@@H]3C[C@@H]3F)c12` [monohydrochloride monohydrate], in series [3] (monohydrate), the “moisture absorption and desorption patterns” value is reported as “substantially the same”; the “change in weight (moisture absorption and desorption properties)” value is listed as not above 1%.

Regarding `Cc1c(N2C[C@]3(N)CCC[C@]3(F)C2)c(F)cc2c(=O)c(C(=O)O)cn([C@@H]3C[C@@H]3F)c12` [Free form (anhydride), 7-[(1R,5S)-1-amino-5-fluoro-3-azabicyclo[3.3.0]octan-3-yl]-6-fluoro-1-[(1R,2S)-2-fluorocyclopropan-1-yl]-1,4-dihydro-8-methyl-4-oxoquinoline-3-carboxylic acid], the values for the Concentration in series [1] (Fasted state simulated intestinal fluid (FaSSIF)), in series [1] (JP 2nd fluid for dissolution test) and in series [1] (Water) were 319 µg/mL, 352 µg/mL and 280 µg/mL, respectively. Moreover, the “Increase in related substances (%)” value in series [2] (40° C./75% RH) and in series [2] (60° C./0% RH) was 0.01% each time.

In the case of `Cc1c(N2C[C@]3(N)CCC[C@]3(F)C2)c(F)cc2c(=O)c(C(=O)O)cn([C@@H]3C[C@@H]3F)c12` [sulfate of compound A], in series [3], the “moisture absorption and desorption patterns” value is reported as “well consistent”; the “change in weight (moisture absorption and desorption properties)” value is given as not above 2%. In addition, the “change in weight (moisture absorption and desorption behaviors)” value in series [3] (relative humidity of 40% to 60%) is listed as not above 2%.
